Measurements: patent publication US10329304B2, “Compounds and methods for inhibition of hedgehog signaling and phosphodiesterase” (Vanderbilt University, priority 2014, dated 2019)

Tests used:
Gli1 mRNA = assay: Hh % Inh.: SAG-induced Gli1 expression in C3H10T½ cells (qPCR); type: cell-based; settings: Mus musculus, C3H 10T1/2, SAG-induced (100 nM), 24 hours; for inhibition at 1 µM: 1 pM [sic], read-out: C3H10T1/2 qPCR, Gh1 mRNA % Inh., 1 pM; for inhibition at 10 µM: 10 pM [sic], read-out: C3H10T1/2 qPCR, Gh1 mRNA % Inh., 10 pM
Procedure: Compounds are dosed from 10 mM DMSO stock solutions, and mRNA is isolated after 24 hours of compound treatment. mRNA is reverse transcribed to produce cDNA which is quantified by quantitative polymerase chain reaction (qPCR) in triplicate and levels are normalized to GAPDH levels. Data is presented as percent inhibition compared to positive control (SAG).

[1] = tested on: Hedgehog signaling (TM3-Gli-Luc); assay: TM3-Gli-Luc luciferase reporter assay stimulated with 20 nM SAG; type: cell-based; settings: Table 9A; read-out: TM3 G8 Luciferase EC 50
Procedure: TM3-Gli-Luc cells were maintained on sterile 0.1% gelatin (from porcine skin, Type A, prepared in MilliQ water, autoclaved, then sterile-filtered) in 1:1 Dulbecco's Modified Eagle Medium (DMEM)/F12 supplemented with 5% horse serum, 2.5% fetal bovine serum (FBS), and 15 mM HEPES, hereafter referred to as TM3 Culture Medium. For small molecule evaluation, TM3-Gli-Luc cells were assayed on 0.1% gelatin in DMEM/F12 supplemented with 2.5% FBS and 15 mM HEPES, hereafter referred to as TM3Luc Medium. Sufu^−/− cells were maintained in DMEM supplemented with 4.5 g/L D-glucose, L-glutamine, 25 mM HEPES, and 10% FBS, hereafter referred to as D10 FBS. For small molecule evaluation, Sufu^−/− cells were assayed in DMEM supplemented with 4.5 g/L D-glucose, L-glutamine, 25 mM HEPES, and 0.5% FBS, hereafter referred to as D0.5 FBS. All cells were cultured at 37° C. with a 5% CO2 atmosphere.
On the day of cell plating, 96-well plates were coated with 50 μL/well of sterile 0.1% gelatin for 5 minutes then aspirated and replaced with 50 μL/well of TM3 Culture Medium. TM3-Gli-Luc cells were seeded at a density of 5,000 cells/well in TM3 Culture Medium and incubated for 24 hours. A master mix of 20 nM SAG in TM3Luc Medium was prepared, and small molecule solutions were prepared by adding the desired amount of compound from 10 mM DMSO stock to TM3Luc Medium containing 20 nM SAG. Negative control was prepared by adding an equi-volume amount of DMSO as compared to small molecule treated conditions to TM3Luc Medium not containing SAG. Cell plating medium was aspirated and replaced with 100 μL/well of prepared small molecule-containing media, and plates were incubated for 48 hours before proceeding to luciferase activity and cell viability reading.
TM3Luc Medium from compound treated plates was aspirated and replaced with 82 μL/well of Glo Lysis Buffer (Promega, Madison, Wis., USA), and plates were shaken at 300 rpm and room temperature for 12 minutes. Lysate was split between two white 96-well plates, 45 μL/well and 25 μL/well for luciferase reading and cell viability respectively. For luciferase activity monitoring, 45 μL/well of Steady Glo (Promega, Madison, Wis., USA) was added to 45 μL/well of cell lysate, incubated at room temperature for 5 minutes, then luminescence was measured on a Turner Biosystems Modulus Microplate Reader (Sunnyvale, Calif., USA) with an integration time of 0.5 seconds. For cell viability measurement, 25 μL/well of Cell Titer Glo (Promega, Madison, Wis., USA) (prepared by 1:10 dilution with Glo Lysis Buffer) was added to 25 μL/well of cell lysate, incubated at room temperature for 5 minutes, then luminescence was measured as above.
Luciferase activity data (Steady Glo) was divided by corresponding cell viability data (Cell Titer Glo) to arrive at a live cell number-normalized luciferase activity reading. The average of negative control data (DMSO treated) was subtracted from all wells, and percent activity was calculated by dividing all wells by the positive control (SAG treated) average. […] At least two independent assays tested on separate days were averaged to provide EC50±standard error of the mean.

zebrafish embryos = assay: Zebrafish embryo phenotypic assay (ZF); type: in vivo; settings: wild-type embryonic zebrafish, dosed 5 hpf
Procedure: All zebrafish experiments were approved by Vanderbilt University Institutional Animal Care and Use Committee. Wild-type zebrafish of AB strain were maintained using standard protocols. Chemical screen for small molecules was performed as previously described. Briefly, pairs of zebrafish were mated, and fertilized eggs were arrayed in 96-well microtiter plates (5 embryos/well) containing 250 μl E3 water. At ˜4-hpf, small molecule library from Vanderbilt High Throughput Screening Facility was added to each well to the final concentration of 5 μM. Embryos were incubated at 28.5° C. until 24 and 48-hpf, when they were examined for gross morphologic changes indicative of disruption in embryonic patterning. A total of ˜30,000 compounds were screened.
ZF refers to wild-type embryonic zebrafish phenotypic assay involving dosing n=˜10 embryos in E3 egg water with compound from either a stock of 1 mM or 10 mM in DMSO at 5 hours post-fertilization and observing at 24, 48, and 72 hours post-fertilization.

[2] = tested on: Hedgehog signaling (Gli-Luc reporter); assay: Hh Gli-Luciferase reporter assay in Shh-Light2 cells; type: cell-based, mouse; settings: for EC50: Mus musculus, Shh Light2, Table 9B, read-out: Shh Light2 Luc EC50
Procedure: For Hh signaling assays, Shh-Light2 cells stably transfected with Gli-Luciferase reporter construct were used along with Shh-conditioned media, as previously described^7. Alternatively, 3 μM purmorphamine or 20 nM Smoothened agonist (SAG) (Santa Cruz Biotechnology, Santa Cruz, Calif.) was used to induce Hh signaling. Reporter cells were seeded in 96-well plates and incubated overnight with the various concentrations of eggmanone and Shh-conditioned media. To assess the effects of overexpression of Gli-2, PDE4D3 and DN-PDE4D3 on Hh signaling, mammalian expression vectors containing these constructs were transfected into Shh-Light2 cells in 96-well plates using Fugene6 (Roche), according to manufacturer's instructions. The transfected or Shh-stimulated cells were incubated overnight with the various concentrations of compound. The cells were then lysed, and cell extracts were subjected to Steady-Glo luciferase assay (Promega) according to manufacturer's instructions. The results were normalized to cell titer, as determined using Cell Titer-Glo luminescence assay (Promega).

SMILES	inhibition at 10 µM (Gli1 mRNA) [%]	EC50 [1] [µM]	ZF Phenotype EC100 (zebrafish embryos) [µM]	further results
C=C(C)Cn1c(SCC(=O)N2CCCC(C)C2)nc2sc3c(c2c1=O)CCCC3 (stereo not shown) [JEH-3-120-1]	106			inhibition at 1 µM (Gli1 mRNA): 28.7%
O=C(CSc1nc2sc3c(c2c(=O)n1C1CC1)CCCC3)c1ccncc1 [JEH-1-163-2]		3.79	>50	
CC(C)n1c(SCC(=O)c2cccs2)nc2sc3c(c2c1=O)CCCC3 [JEH-3-031]	101			inhibition at 1 µM (Gli1 mRNA): 11.7%
C=C(C)Cn1c(SCC(=O)c2cccnc2)nc2sc3c(c2c1=O)CCCC3 [JEH-3-045-3]	43.6	10.5		
O=C(CSc1nc2sc3c(c2c(=O)n1C1CC1)CCSC3)c1cccs1 [JEH-1-161-2]		9.55	1	
CN1CCc2c(sc3nc(SCC(=O)c4ccccc4)n(C4CC4)c(=O)c23)C1 [KYK-1-76]		5.13	>50	
CCn1c(SCC(=O)c2ccccc2)nc2sc(C)c(C)c2c1=O [HI864]				EC50 [2]: > 10 µM
O=C(CSc1nc2sccc2c(=O)n1C1CC1)c1cccs1 [JEH-1-065-2]		1.09	10	
O=C(CSc1nc2ccccc2c(=O)n1C1CC1)c1cccs1 [JEH-1-134]		0.713	1	
C=C(C)Cn1c(SCC(=O)c2cccs2)nc2ccccc2c1=O [JEH-1-146-1]	68.9	> 50	10	
O=C(CSc1nc2ccsc2c(=O)n1C1CC1)c1cccs1 [JEH-2-069-2]		1.11	48	
O=C(CSc1nc2sccc2c(=O)n1CC1CC1)c1cccnc1 [JEH-2-022-2]		3.16	25	
C=CCn1c(SCC(=O)c2ccc(C)cc2)nc2sc3c(c2c1=O)CCCC3 [HI612]				EC50 [2]: > 10 µM
O=C(CSc1nc2ncccc2c(=O)n1C1CC1)c1cccs1 [JEH-1-137]		3.32	>50	
CCn1c(SCC(=O)c2ccccc2)nc2sc3c(c2c1=O)CCC3 [HI598]				EC50 [2]: > 10 µM
C=CCn1c(SCC(=O)c2ccc(-c3ccccc3)cc2)nc2sc3c(c2c1=O)CCCC3 [Formula (20)]				Hh Inhibition Assay (EC50, μM) ([2]; Table 8): Inactive
C=C(C)Cn1c(SCC(=O)c2cccs2)nc2sc3c(c2c1=O)CCNC3 [JEH-1-064]	64.1	7.06	>50	
O=C(CSc1nc2sc3c(c2c(=O)n1C1CC1)CCOC3)c1cccs1 [JEH-1-161-1]		19.1	0.5	

SMILES	inhibition at 10 µM (Gli1 mRNA) [%]	EC50 [1] [µM]	ZF Phenotype EC100 (zebrafish embryos) [µM]	further results
C=C(C)Cn1c(SCC(=O)c2cccs2)nc2sc3c(c2c1=O)CCOC3 [JEH-2-120-1]	82.9	30.2		
CC(C)(C)Cn1c(SCC(=O)c2cccs2)nc2sc3c(c2c1=O)CCCC3 [JEH-3-056-2]	84.8			inhibition at 1 µM (Gli1 mRNA): 13.1%
C=C(C)Cn1c(SCC(=O)c2cccs2)nc2ncccc2c1=O [JEH-1-146-2]	28.7	11.2	>50	
Cc1ccc(CSc2nc3sccc3c(=O)n2C2CC2)cc1 [JEH-1-190-3]		5.01	>50	
CCCN1CCc2c(sc3nc(SCC(=O)c4ccccc4)n(C4CC4)c(=O)c23)C1 [KYK-1-100]		4.67	>50	
C=CCn1c(SCC(=O)O)nc2sc3c(c2c1=O)CCCC3 [HI918]				EC50 [2]: > 10 µM
C=C(C)Cn1c(SC)nc2sc3c(c2c1=O)CCCC3 [JEH-3-146]	83.9	23.9		inhibition at 1 µM (Gli1 mRNA): 48.4%
CC(C)Cn1c(SCC(=O)c2cccs2)nc2sc3c(c2c1=O)CCCC3 [JEH-3-038-2]	102			inhibition at 1 µM (Gli1 mRNA): 27.8%
CC(C)(O)Cn1c(SCC(=O)c2cccs2)nc2sc3c(c2c1=O)CCCC3 [JEH-3-038-3]	14.8			inhibition at 1 µM (Gli1 mRNA): 24.4%
C=C(C)Cn1c(SCC(=O)c2cccs2)nc2cnccc2c1=O [JEH-2-088]	24.2	14.1		
C=C(C)Cn1c(SC)nc2sc3c(c2c1=O)CCCC3 [HI272]				EC50 [2]: > 10 µM
C=C(C)Cn1c(SCC(=O)c2cccs2)nc2sc3c(c2c1=O)CCN(C(=O)c1ccco1)C3 [JEH-2-105]	54.9			
O=C(CSc1nc2sc3c(c2c(=O)n1Cc1ccccc1)CCCC3)c1cccs1 [JEH-3-058-2]	18.3			
CCn1c(SCC(=O)c2ccc(Br)cc2)nc2sc3c(c2c1=O)CCC3 [HI2863]				EC50 [2]: > 10 µM
O=C(CSc1nc2sc3c(c2c(=O)n1CC1CCC1)CCCC3)c1cccs1 [JEH-3-056-1]	67.2	7.08	1	inhibition at 1 µM (Gli1 mRNA): 14.7%
C=C(C)Cn1c(SCC(=O)c2cccs2)nc2sccc2c1=O [JEH-1-054]	50.4	1.1	>50	inhibition at 1 µM (Gli1 mRNA): 19.6%
O=C(CSc1nc2sc3c(c2c(=O)n1C1CC1)CCNC3)c1ccccc1 [KYK-1-57]		8.55	>50	
C=CCn1c(SCC(=O)c2ccc(F)cc2)nc2sc3c(c2c1=O)CCCC3 [HI682]				EC50 [2]: > 10 µM
